Consider 1 compound from patent US20230057861A1, “USE OF CORYDALIS SAXICOLA BUNTING AND FORMULATION THEREOF IN PREPARATION OF DRUG FOR TREATING NON-ALCOHOLIC FATTY LIVER DISEASES” (NANJING ZHONGSHAN PHARMACEUTICAL CO., LTD., priority 2020, published 2023).

SMILES strings stand for the structures.

This assay deals with HFD-fed mice. The assay is described as follows: Liver histopathology, HE staining. The format is in vivo, C57BL/6J mice. The note with it: metformin group (200 mg/kg), gavage 5 weeks, FIG. 5. The protocol: 1.4 Experimental method: After adaptive feeding for one week, 35 four-week-old male C57BL/6 mice were randomized into 2 initial groups, fed with a normal chow or a high-fat (60% fat) high-sugar (20% fructose) chow. […] During modeling, the mice were given ad libitum access to food and water at room temperature of 23-25° C. in an animal laboratory. The proper temperature and the 12-hour day-night cycle were maintained. From week 11, the mice in each group were dosed by gavage for 5 weeks, and its weight was measured once a week. 4.1.1 Experimental method: Fresh liver tissue was collected and fixed in 4% neutral formalin buffer for 24 h, and then dehydrated. The tissue blocks were trimmed, processed, and embedded in paraffin. The tissue in glass slides were cut to the thickness of 5 μm and treated with HE staining.

On to `CN(C)C(=N)N=C(N)N` [metformin], for which the “hepatocyte swelling, steatosis, sparse cytoplasm (HE staining)” value was “significantly relieved”.
